Usually EC50 stands for the concentration needed to bring the measured effect to its halfway point.

The experiment concerns the target T1, HEK cells stably transfected with tetracycline inducible hNR1 and hNR2A (Homo sapiens, UniProt Q05586+Q12879).
T1 construct: expressed in transfected cells; host or cells: HEK cells, stably transfected, tetracycline/doxycycline inducible
As to the kind of experiment: Assay 1: Cell-Based Assay, cytosolic calcium response to positive allosteric modulators (with 30 μM glycine and 300 nM L-glutamate, EC30). To be noted: for EC50: cytosolic calcium response, with 30 μM glycine and 300 nM L-glutamate (EC30), — = no plateau was reached; for Max %: responses scaled relative to 100 μM L-glutamate maximal response (100%) and 0 μM L-glutamate (0%). In outline:
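Cells induced 24 h with 7.5 μg mL^−1 doxycycline plus 500 μM (+)-ketamine, loaded 60 min at 37 °C with calcium dye in Mg-free HBSS (1.8 mM Ca, probenecid, 10 μM (+)-ketamine, pH 7.15). Peak RFU over 5 min after compound addition, scaled to 100 μM L-glutamate (100%) and 0 μM (0%); four-parameter Hill fit for EC50, max % if no plateau.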

T1 sequence (Q12879 23-1464, other chains not shown): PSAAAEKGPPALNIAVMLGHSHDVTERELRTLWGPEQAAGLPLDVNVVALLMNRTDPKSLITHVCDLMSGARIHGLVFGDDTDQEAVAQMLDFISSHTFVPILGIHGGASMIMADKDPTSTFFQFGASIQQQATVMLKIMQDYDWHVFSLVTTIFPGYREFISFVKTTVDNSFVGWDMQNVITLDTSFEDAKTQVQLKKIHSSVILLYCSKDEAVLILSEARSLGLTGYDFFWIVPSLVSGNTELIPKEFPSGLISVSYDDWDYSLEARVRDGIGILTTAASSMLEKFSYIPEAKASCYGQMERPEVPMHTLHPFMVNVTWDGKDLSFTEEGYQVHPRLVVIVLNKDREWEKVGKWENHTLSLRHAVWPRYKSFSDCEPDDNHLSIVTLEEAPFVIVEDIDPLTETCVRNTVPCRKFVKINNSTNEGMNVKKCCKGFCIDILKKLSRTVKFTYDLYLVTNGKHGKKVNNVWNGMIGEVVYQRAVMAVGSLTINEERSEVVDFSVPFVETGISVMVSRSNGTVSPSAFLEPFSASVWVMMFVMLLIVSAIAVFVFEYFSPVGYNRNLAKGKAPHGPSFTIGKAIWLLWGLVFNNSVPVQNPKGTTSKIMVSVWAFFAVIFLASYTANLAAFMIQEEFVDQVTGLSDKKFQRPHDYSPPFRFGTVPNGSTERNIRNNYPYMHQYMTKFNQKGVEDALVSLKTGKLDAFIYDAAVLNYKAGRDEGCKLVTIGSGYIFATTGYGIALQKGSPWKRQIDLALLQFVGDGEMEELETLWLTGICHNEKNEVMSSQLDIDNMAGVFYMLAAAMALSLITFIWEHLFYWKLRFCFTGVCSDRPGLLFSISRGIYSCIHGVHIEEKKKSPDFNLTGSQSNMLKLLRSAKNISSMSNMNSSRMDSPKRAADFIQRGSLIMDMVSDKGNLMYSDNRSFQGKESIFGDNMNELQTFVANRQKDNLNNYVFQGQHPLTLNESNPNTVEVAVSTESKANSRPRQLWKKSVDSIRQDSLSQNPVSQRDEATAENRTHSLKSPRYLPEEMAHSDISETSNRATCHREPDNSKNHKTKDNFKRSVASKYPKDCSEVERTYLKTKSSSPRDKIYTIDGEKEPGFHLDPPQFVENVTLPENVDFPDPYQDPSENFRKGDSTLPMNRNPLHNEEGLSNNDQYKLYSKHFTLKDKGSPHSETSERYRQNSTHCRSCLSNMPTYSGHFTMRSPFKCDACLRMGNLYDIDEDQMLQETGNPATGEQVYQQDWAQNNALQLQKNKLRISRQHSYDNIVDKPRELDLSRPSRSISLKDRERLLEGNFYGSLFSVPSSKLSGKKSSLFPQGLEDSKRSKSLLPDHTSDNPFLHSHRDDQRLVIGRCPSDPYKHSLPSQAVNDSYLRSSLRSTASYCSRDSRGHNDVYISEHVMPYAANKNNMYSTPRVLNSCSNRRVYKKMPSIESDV

Turning to `CCN(Cc1cc(=O)n2c(C(F)(F)F)c(C)sc2n1)c1ccc(F)cc1` [Example 5.38, 7-((ethyl(4-fluorophenyl)amino)methyl)-2-methyl-3-(trifluoromethyl)-5H-thiazolo[3,2-a]pyrimidin-5-one], for the setting “Table 2”, the EC50 came out at 1100 nM and the Max % was 147%.
In the case of `Cc1sc2nc(Cn3nc(Cl)cc3N)cc(=O)n2c1Br` [compound 228, 7-[(5-amino-3-chloro-pyrazol-1-yl)methyl]-3-bromo-2-methyl-thiazolo[3,2-a]pyrimidin-5-one], the EC50 (Table 3) came to 32200 nM.
With `CCN(Cc1cc(=O)n2c(-c3ccn(C)n3)c(C)sc2n1)c1ccc(F)cc1` [Example 5.56, 7-[(N-ethyl-4-fluoro-anilino)methyl]-2-methyl-3-(1-methylpyrazol-3-yl)thiazolo[3,2-a]pyrimidin-5-one], the Max % (Table 2) is recorded as 110%.
Turning to `COc1sc2nc(Cn3nc(C(F)(F)F)cc3Cl)cc(=O)n2c1Cl` [compound 217, 3-chloro-7-[[5-chloro-3-(trifluoromethyl)pyrazol-1-yl]methyl]-2-methoxy-thiazolo[3,2-a]pyrimidin-5-one], where the note is “Table 3”, the EC50 was found to be 4740 nM.
In the case of `CCN(Cc1cc(=O)n2c3c(sc2n1)CCC3CO)c1ccc(F)cc1` (stereo not drawn) [Example 8.5, 6-[(N-ethyl-4-fluoro-anilino)methyl]-1-(hydroxymethyl)-2,3-dihydro-1H-cyclopenta[3,4]thiazolo[1,4-a]pyrimidin-8-one], under “Table 2”, the EC50 was found to be 16900 nM and the Max % is 114%.
Take `CCN(Cc1cc(=O)n2c(C3CC3C#N)c(C)sc2n1)c1ccc(F)cc1` (stereo not drawn) [Example 14.2, 2-(7-[[ethyl(4-fluorophenyl)amino]methyl]-2-methyl-5-oxo-5H-[1,3]thiazolo[3,2-a]pyrimidin-3-yl)cyclopropane-1-carbonitrile]: where the note is “Table 2”, the EC50 is 122 nM and the Max % stood at 205%.
Take `CC(=O)c1c(C)sc2nc(Cc3cccc(C#N)c3F)cc(=O)n12` [Example 27.10, 3-((3-acetyl-2-methyl-5-oxo-5H-thiazolo[3,2-a]pyrimidin-7-yl)methyl)-2-fluorobenzonitrile]: the EC50 (Table 2) was found to be 29100 nM.
On to `Cc1sc2nc(COc3ccc(F)cc3)cc(=O)n2c1[C@@H]1C[C@H]1C(F)(F)F` (relative stereo) [Example 4.24, trans-7-(4-Fluorophenoxymethyl)-2-methyl-3-[2-(trifluoromethyl)cyclopropyl]-5H-[1,3]thiazolo[3,2-a]pyrimidin-5-one], for which, under “Table 2”, the 50% effective concentration (EC50) is 2100 nM and the Max % turned out to be 80%.
On to `CCNC(=O)c1c(C(C)=O)sc2nc(Cn3nc(C(F)(F)F)cc3Cl)cc(=O)n12` [compound 237, 2-acetyl-7-[[5-chloro-3-(trifluoromethyl)pyrazol-1-yl]methyl]-N-ethyl-5-oxo-thiazolo[3,2-a]pyrimidine-3-carboxamide], for which the EC50 (Table 3) is 889 nM.
As to `CCNC(=O)c1c(C)sc2nc(Cc3cccc(C)c3F)cc(=O)n12` [Example 21.5, N-ethyl-7-(2-fluoro-3-methylbenzyl)-2-methyl-5-oxo-5H-thiazolo[3,2-a]pyrimidine-3-carboxamide], under “Table 2”, the concentration for a half-maximal effect (EC50) amounted to 18900 nM and the Max % is reported as 124%.
As to `CC(=O)c1c(C(F)(F)F)sc2nc(Cn3nc(C(F)(F)F)cc3Cl)cc(=O)n12` [compound 166, 3-acetyl-7-[[5-chloro-3-(trifluoromethyl)pyrazol-1-yl]methyl]-2-(trifluoromethyl)thiazolo[3,2-a]pyrimidin-5-one], the EC50 (Table 3) is 2690 nM.
For `CCN(Cc1cc(=O)n2c(C3CC3(C#N)CO)csc2n1)c1ccc(F)cc1` (stereo not drawn) [compound 220, 2-[7-[(N-Ethyl-4-fluoro-anilino)methyl]-5-oxo-thiazolo[3,2-a]pyrimidin-3-yl]-1-(hydroxymethyl)cyclopropanecarbonitrile], under “Table 3”, the EC50 was determined as 47000 nM.
For the molecule `CCN(Cc1cc(=O)n2c(C(F)CCO)c(C)sc2n1)c1ccc(F)cc1` (stereo not drawn) [Example 12.2, 7-[(N-ethyl-4-fluoro-anilino)methyl]-3-(1-fluoro-3-hydroxy-propyl)-2-methyl-thiazolo[3,2-a]pyrimidin-5-one], under “Table 2”, the EC50 turned out to be 270 nM and the Max % is on record as 192%.
On to `Cc1sc2nc(COc3ccc(F)cc3)cc(=O)n2c1C(=O)NO` [Example 1.9, 7-((4-fluorophenoxy)methyl)-N-hydroxy-2-methyl-5-oxo-5H-thiazolo[3,2-a] pyrimidine-3-carboxamide], for which the Max % (Table 2) came to 99.5%.
Turning to `CCNC(=O)c1c(C)sc2nc(Cc3cccc4c3cnn4C)cc(=O)n12` [Example 21.38, N-ethyl-2-methyl-7-((1-methyl-1H-indazol-4-yl)methyl)-5-oxo-5H-thiazolo[3,2-a]pyrimidine-3-carboxamide], under “Table 2”, the Max % is 66.5%.
Turning to `Cc1sc2nc(Cn3nc(Cl)cc3Cl)cc(=O)n2c1C1CC1C#N` (stereo not drawn) [compound 251], the concentration for a half-maximal effect (EC50) (Table 3) turned out to be 420 nM.
Consider `Cc1sc2nc(Cn3nc(C(F)(F)F)cc3Cl)cc(=O)n2c1C(=O)C(F)(F)F` [compound 198, 7-[[5-chloro-3-(trifluoromethyl)pyrazol-1-yl]methyl]-2-methyl-3-(2,2,2-trifluoroacetyl)thiazolo[3,2-a]pyrimidin-5-one], for which the EC50 (Table 3) came out at 201 nM.
`N#CC1CC1c1c(C(F)(F)F)sc2nc(Cn3nc(Cl)cc3C(F)(F)F)cc(=O)n12` (stereo not drawn) [compound 145, 2-[7-[[3-chloro-5-(trifluoromethyl)pyrazol-1-yl]methyl]-5-oxo-2-(trifluoromethyl)thiazolo[3,2-a]pyrimidin-3-yl]cyclopropanecarbonitrile]: where the note is “Table 3”, the EC50 came out at 132 nM.
Regarding `CCNC(=O)c1c(C)sc2nc(CN(C)c3ccc(Cl)cn3)cc(=O)n12` [compound 124, 7-[[(5-chloro-2-pyridyl)-methyl-amino]methyl]-N-ethyl-2-methyl-5-oxo-thiazolo[3,2-a]pyrimidine-3-carboxamide], under “Table 3”, the EC50 turned out to be 5900 nM.
As to `N#CC1CC1c1c(C(F)(F)F)sc2nc(Cn3nc(C(F)(F)F)cc3Cl)cc(=O)n12` (single isomer, unassigned) [compound 207], the EC50 (Table 3) is 7.4 nM.
Same read-out and setting: the value for `CCNC(=O)c1c(C)sc2nc(Cn3nc(C(F)(F)F)cc3C3CC3)cc(=O)n12` [compound 76, 7-[[5-cyclopropyl-3-(trifluoromethyl)pyrazol-1-yl]methyl]-N-ethyl-2-methyl-5-oxo-thiazolo[3,2-a]pyrimidine-3-carboxamide] was 436 nM; that for `Cc1sc2nc(Cn3nc(Cl)cc3C(F)(F)F)cc(=O)n2c1-c1ccn[nH]1` [compound 133, 7-[[3-chloro-5-(trifluoromethyl)pyrazol-1-yl]methyl]-2-methyl-3-(1H-pyrazol-5-yl)thiazolo[3,2-a]pyrimidin-5-one] was 10100 nM.
As for `CCNC(=O)c1c(C)sc2nc(Cc3cc(F)ccc3C3CC3)cc(=O)n12` [Example 21.65, 7-(2-cyclopropyl-5-fluorobenzyl)-N-ethyl-2-methyl-5-oxo-5H-thiazolo[3,2-a]pyrimidine-3-carboxamide], where the note is “Table 2”, the Max % worked out at 96.3%.
Consider `CCNC(=O)c1c(C)sc2nc(Cc3cccc(C(F)(F)F)n3)cc(=O)n12` [Example 21.18, N-ethyl-2-methyl-5-oxo-7-((6-(trifluoromethyl)pyridine-2-yl)methyl)-5H-thiazolo[3,2-a]pyrimidine-3-carboxamide], for which the Max % (Table 2) is on record as 58.5%.

These data come from patent US9988400B2 (Genentech, Inc., priority 2013, dated 2018).
